Assay results from patent publication US20250320247A1, “NOVEL D-AMINO ACID DERIVATIVE AND PHARMACEUTICAL COMPOSITION COMPRISING SAME” (SENELIX CO., LTD., priority 2022, published 2025).
Non-standard residues stand in square brackets, D forms with d. Residues, ends and D or L forms follow the SMILES beside them.

Experiments:
TNF-α = assay: In-vitro anti-inflammatory test: TNF-α production by ELISA in LPS-treated macrophages (RAW 264.7); type: cell-based; details: RAW 264.7, LPS 100 ng/ml, test substance 1 μM and 10 μM, 24 hours, vs LPS-only control
Description: (§1) Lipopolysaccharide (LPS)-treated macrophages (RAW 264.7) were treated with the compounds prepared in Examples 1 and 2 as test substances, respectively, and the change in the production of inflammatory cytokines (TNF-α and IL-1β) was measured by ELISA and western blotting, respectively.
Specifically, 1×10^4 macrophages (RAW 264.7) were dispensed in each well of a 96-well plate together with 0.1 mL of Dulbecco's modified Eagle's medium (DMEM) containing 10% FBS (GIBCO) and 1% penicillin/streptomycin. After incubation for 1 day in a 5% CO2 incubator at 37° C., when the confluency of the cells reached 80% or higher, LPS (100 ng/ml) and the test substance were treated at concentrations of 1 μM and 10 μM, respectively, and incubated for 24 hours. A control group was treated only with LPS (100 ng/ml) and incubated for 24 hours. The supernatant of each test group was prepared as a sample for ELISA analysis. The production of TNF-α was investigated using an ELISA assay kit (ELISA MAX Standard Set Human TNF-α; BioLegend, #430201) and a microplate reader at 450 nm according to the manufacturer's protocol.

IL-1β = assay: In-vitro anti-inflammatory test: IL-1β expression by western blotting in LPS-treated macrophages (RAW 264.7); type: cell-based; details: RAW 264.7, LPS 100 ng/ml, test substance 1 μM and 10 μM, 30 minutes, vs LPS-only control
Description: as §1
In addition, […] macrophages (RAW 264.7) were dispensed in each well of a 96-well plate together with 0.1 mL of Dulbecco's modified Eagle's medium (DMEM) containing 10% FBS (GIBCO) and 1% penicillin/streptomycin. After incubation for 1 day in a 5% CO2 incubator at 37° C., when the confluency of the cells reached 80% or higher, LPS (100 ng/ml) and the test substance were treated at concentrations of 1 μM and 10 μM, respectively, and incubated for 30 minutes. A control group was treated only with LPS (100 ng/ml) and incubated for 30 minutes. The cells were lysed using an NP40 cell lysis buffer and quantified by Bradford assay. Then, the expression level of IL-1β was measured by western blotting.

[1] = system: dry eye syndrome-induced C57BL/6NHsd mice; assay: Dry eye syndrome model: tear volume by phenol red thread test; type: in vivo; details: 2 μL/eye, 3 times a day; for tear volume level vs normal control group (G1) / tear volume level vs induced control group (G2): days 5 and 10; for tear volume level vs induced control group (G2): p<0.001, p<0.01 or p<0.05
Description: (§2) Dry eye syndrome was induced in specific pathogen-free (SPF) C57BL/6NHsd mice (male, 7 weeks old) [Koatech, Korea]. Specifically, during the dry eye syndrome induction period (from day −10 to day 0), scopolamine hydrobromide dissolved in physiological saline (PBS) was injected subcutaneously into the back skin of mice at a dose of 0.5 mg/0.2 mL, 4 times a day, for 10 days. After measuring the tear volume of the dry eye syndrome-induced mice, the mice were randomly divided into groups of G2 to G6 as shown in Table 1 so that the average tear volume of each group was distributed uniformly. G1 is a normal control group in which dry eye syndrome was not induced.
(§3) From the day of the induction of dry eye syndrome (day 0), the compound prepared in Example 2 as a test substance (i.e., acetate of the compound of the Chemical Formula 1b, hereinafter referred to as ‘Compound 1b’) was dissolved in physiological saline (PBS) at concentrations of 0.1% and 1% and dropped onto the center of the right cornea of the mice of G4 and G5 3 times a day for 10 days, respectively. G2 is a dry eye syndrome-induced control group. For G3, physiological saline (PBS) was dropped onto the center of the cornea of the right eye of the mice in which dry eye syndrome was induced. For G6 (positive control group), Restasis® ophthalmic solution (0.05%, containing cyclosporine) was dropped onto the center of the cornea of the right eye of the dry eye syndrome-induced mice.
Tear volume was measured by phenol red thread (PRT) test. Specifically, on days 5 and 10 after the start of the administration of the test substance, a phenol red thread was placed in the lateral canthus of the eye for 20 seconds and then tear volume (mm) was measured.
(§4) Statistical analysis was performed using Prism 7.04 (GraphPad Software Inc., San Diego, CA, USA), and a p-value smaller than 0.05 was judged to be statistically significant.

[2] = system: corneal damage-induced Sprague-Dawley rats; assay: Corneal damage model: histopathological examination (H&E) of inflammatory cell infiltration; type: in vivo; details: 10 μL/eye, 3 times a day for 7 days, day 7
Description: Corneal damage was induced in pathogen-free (SPF) Sprague-Dawley rats (male, 7 weeks old) [Koatech, Korea]. Specifically, after anesthetizing the rats, a filter paper soaked in 2 μL of 0.1 M NaOH solution was applied to the center of the cornea of the right eye for about 10 seconds, and then washed with physiological saline. The body weight of the corneal damage-induced rats was measured, and they were randomly divided into groups G2 to G6 as shown in Table 2 so that the average body weight of each group was distributed uniformly. G1 is a normal control group in which corneal damage was not induced. […]
On the day of autopsy (day 7), the animal was euthanized, and the eyeball was removed to include the conjunctiva and fixed in a 10% neutral buffered formalin solution. […] Then, the infiltration of inflammatory cells into the cornea, conjunctiva and anterior chamber was evaluated by optical microscopy (Olympus BX53, Japan). The infiltration of inflammatory cells into the corneal stroma and anterior chamber was evaluated according to the known method. […]

[3] = system: corneal damage-induced Sprague-Dawley rats; assay: Corneal damage model: corneal fluorescein staining score (NEI grading); type: in vivo; details: 10 μL/eye, 3 times a day; for corneal fluorescein staining score vs normal control group (G1): 6 hours to 5 days, p<0.01; for corneal fluorescein staining score vs induced control (G2): at 6 hours and on days 2 to 6, p<0.001, p<0.01 or p<0.05; for corneal fluorescein staining score vs PBS group (G3): days 3 to 6, p<0.001 or p<0.01
Description: Corneal damage was induced in pathogen-free (SPF) Sprague-Dawley rats (male, 7 weeks old) [Koatech, Korea]. Specifically, after anesthetizing the rats, a filter paper soaked in 2 μL of 0.1 M NaOH solution was applied to the center of the cornea of the right eye for about 10 seconds, and then washed with physiological saline. The body weight of the corneal damage-induced rats was measured, and they were randomly divided into groups G2 to G6 as shown in Table 2 so that the average body weight of each group was distributed uniformly. G1 is a normal control group in which corneal damage was not induced.
From the day of the corneal damage (day 0), the compound prepared in Example 2 as a test substance (i.e., acetate of the compound of the Chemical Formula 1b, hereinafter referred to as ‘Compound 1b’) was dissolved in physiological saline (PBS) at concentrations of 0.1% and 1% and instilled into the eye of the mice of G4 and G5 at 10 μL/eye, 3 times a day, for 7 days. G2 is an induced control group in which corneal damage was induced. For G3, physiological saline (PBS) was instilled 10 into the eye of the corneal damage-induced rats. For G6 (positive control), Restasis® ophthalmic solution (0.05%, containing cyclosporine) was instilled into the eye of the corneal damage-induced rats.
as §4

[4] = system: dry eye syndrome-induced C57BL/6NHsd mice; assay: Dry eye syndrome model: histopathological examination (H&E) of inflammation; type: in vivo; details: day 10; for level of inflammation and fibrosis vs G2 and G3 (histopathology): 2 μL/eye, 3 times a day for 10 days, p<0.001 or p<0.05
Description: as §2, §3
On the day of autopsy (day 10), the animal was euthanized and the eyeball was removed to include the conjunctiva and fixed in a 10% neutral buffered formalin solution. Samples for histopathological examination were prepared through the processes of trimming, dehydration, paraffin embedding and thin-sectioning of the fixed tissue, followed by hematoxylin and eosin (H&E) staining. Then, the infiltration of inflammatory cells into the cornea, conjunctiva and anterior chamber was evaluated by optical microscopy (Olympus BX53, Japan). The inflammation of the cornea and conjunctiva was assessed according to the known method. The scoring criteria were as follows. Scores: 0 (normal), 1 (mild), 2 (moderate), 3 (severe).
as §4

[5] = system: dry eye syndrome-induced C57BL/6NHsd mice; assay: Dry eye syndrome model: corneal fluorescein staining score (NEI grading); type: in vivo; details: 2 μL/eye, 3 times a day, day 5 to day 10; for corneal fluorescein staining score vs PBS group (G3): p<0.001 or p<0.01; for corneal fluorescein staining score vs normal control (G1): p<0.01 or p<0.05
Description: as §2, §3, §4

## NC(=O)C[C@@H](NC(=O)[C@H](N)CC(=O)O)C(=O)N[C@H](CC(=O)O)C(=O)O [Chemical Formula 1a] (H-[dD]-[dN]-[dD]-OH)
TNF-α
  secretion of inflammatory cytokine TNF-α: inhibited in a concentration-dependent manner
IL-1β
  expression of inflammatory cytokine IL-1β: inhibited in a concentration-dependent manner

## NC(=O)C[C@@H](NC(=O)[C@H](N)CC(=O)O)C(=O)N[C@H](CC(=O)O)C(N)=O [Compound 1b] (H-[dD]-[dN]-[dD]-NH2)
[1]; G4: 0.1% in PBS, day 10, p<0.001
  tear volume level vs PBS group (G3): significantly higher than that of G3
[1]; G4: 0.1% in PBS, p<0.001
  tear volume level vs normal control group (G1): statistically significantly lower than that of the normal control group (G1)
[1]; G4: 0.1% in PBS
  tear volume level vs induced control group (G2): significantly higher than that of G2
[1]; G5: 1% in PBS, day 5, p<0.01
  tear volume level vs PBS group (G3): statistically significantly higher than that of G3
[1]; G5: 1% in PBS, day 10, p<0.001
  tear volume level vs PBS group (G3): significantly higher than that of G3
[1]; G5: 1% in PBS, p<0.001
  tear volume level vs normal control group (G1): statistically significantly lower than that of the normal control group (G1)
[1]; G5: 1% in PBS
  tear volume level vs induced control group (G2): significantly higher than that of G2
TNF-α
  secretion of inflammatory cytokine TNF-α: inhibited in a concentration-dependent manner
[2]; G4: 0.1% in PBS
  degree of infiltration of inflammatory cells into corneal keratocytes and anterior chamber vs G2 and G3: statistically significantly lower
[2]; G5: 1% in PBS
  degree of infiltration of inflammatory cells into corneal keratocytes and anterior chamber vs G2 and G3: statistically significantly lower
IL-1β
  expression of inflammatory cytokine IL-1β: inhibited in a concentration-dependent manner
[3]; G4: 0.1% in PBS
  corneal fluorescein staining score vs normal control group (G1): statistically significantly higher than that of the normal control group (G1)
  corneal fluorescein staining score vs induced control (G2): significantly lower than that of G2
  corneal fluorescein staining score vs PBS group (G3): significantly lower than that of G3
[3]; G5: 1% in PBS
  corneal fluorescein staining score vs normal control group (G1): statistically significantly higher than that of the normal control group (G1)
  corneal fluorescein staining score vs induced control (G2): significantly lower than that of G2
  corneal fluorescein staining score vs PBS group (G3): significantly lower than that of G3
[4]; 0.1% test substance-administered group
  inflammation in the cornea and conjunctiva (histopathology): no inflammation was observed
[4]; 1% test substance-administered group
  inflammation in the cornea and conjunctiva (histopathology): no inflammation was observed
[4]; G4: 0.1% in PBS
  level of inflammation and fibrosis vs G2 and G3 (histopathology): significantly lower as compared to G2 and G3
[4]; G5: 1% in PBS
  level of inflammation and fibrosis vs G2 and G3 (histopathology): significantly lower as compared to G2 and G3
[5]; G4: 0.1% in PBS
  corneal fluorescein staining score vs induced control (G2): significantly lower than that of G2
  corneal fluorescein staining score vs PBS group (G3): statistically significantly lower than that of G3
  corneal fluorescein staining score vs normal control (G1): statistically significantly higher than that of G1
[5]; G5: 1% in PBS
  corneal fluorescein staining score vs induced control (G2): significantly lower than that of G2
  corneal fluorescein staining score vs PBS group (G3): statistically significantly lower than that of G3
  corneal fluorescein staining score vs normal control (G1): statistically significantly higher than that of G1
